Values quoted from earlier work as cited in patent US4952402A, “Controlled release powder and process for its preparation” (priority 1984, dated 1990).

Cn1c(=O)c2[nH]cnc2n(C)c1=O [theophylline]
apparent biological half-life (in vivo): 4-9 hours | time of peak (rapid or immediate release): 2 h
